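Five concentrations, 48 hours, 96-well plates. At the TGI there is no net growth.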
Tests used:
Assay in all cases: NCI tumour cell line growth inhibition, 48 h
DLD-1 colon = tested on: DLD-1 colon
DMS 273 small cell lung = tested on: DMS 273 small cell lung
NCI/ADR-RES ovarian = tested on: NCI/ADR-RES ovarian
OVCAR-8 ovarian = tested on: OVCAR-8 ovarian
P388 leukemia = tested on: P388 leukemia
P388/ADR leukemia = tested on: P388/ADR leukemia
BT-549 breast = tested on: BT-549 breast
M14 melanoma = tested on: M14 melanoma
T-47D breast = tested on: T-47D breast

Measured: TGI

CCCN1C(=O)/C(=C(/O)C(=O)OCC)C(c2ccc(OC)c(OC)c2)C1=O (centres undefined)
> 100 µM: DLD-1 colon | DMS 273 small cell lung | NCI/ADR-RES ovarian | OVCAR-8 ovarian | P388 leukemia | P388/ADR leukemia

Cc1[nH]c(=O)[nH]c(=O)c1C(=O)N(CCO)Cc1ccccc1
> 100 µM: BT-549 breast | M14 melanoma | T-47D breast

From PubChem BioAssay (NCI)
